Measurements as given in patent US20060276416A1, “Methods and compositions for treating flushing and drug induced weight gain” (Sirtris Pharmaceuticals, Inc., priority 2005, published 2006).

Assays:
C. elegans = C. elegans fat accumulation, Nile Red staining; type: in vivo
Protocol: Fat accumulation was visualized with Nile Red staining, as described further below and in Ashrafi K, et al. Nature 421:268-27 (2003).
Synchronized starved L1 worms were grown in the presence of Nile Red. Strains were grown on NGM plates at 25° C. for approximately 48 hours until the young adult stage was reached. 20-30 young adult worms were then washed 2× with M9 buffer and transferred to new NGM/Nile red experimental plates that contained either OP50 or HTT5 E. coli carrying the L4440 RNAi control vector.
Young adults were transferred to plates containing the appropriate vector, Nile Red stain and drug then maintained at 25° C.
Nile Red: Nile Red Powder (Sigma #N-3013) was dissolved in acetone at 500 μg/ml, diluted in 1× Phosphate Buffered Saline (PBS) including appropriate drug and applied to surface of Nematode Growth Media (NGM) plates previously seeded with OP50 or RNAi bacteria, at a final concentration of 0.05 μg/ml. Fat content was monitored and recorded by fluorescence microscopy.

phosphorylation of ACC = assay: ACC phosphorylation Western in 3T3-L1 adipocytes; type: cell-based; conditions: day 6 and day 10 of differentiation
Protocol: ACC was also phosphorylated when the cells were incubated in serum free media overnight before harvesting (lanes marked “SF”). The reason for the extra band in the SIRT1 blot at day 6 is unknown, but it may be a modified form of SIRT1. Tubulin served as a loading control.

[1] = tested on: TNF-alpha treated adipocytes; assay: Radioactive glucose uptake in TNF-alpha treated insulin resistant adipocytes; type: cell-based; conditions: resveratrol 5 μM or 15 μM; roziglitazone 4 μM

Oc1ccc(/C=C/c2cc(O)cc(O)c2)cc1 [Resveratrol, 3,5,4′-Trihydroxy-trans-stilbene]
Fat staining (C. elegans; 100 μM, 48 hours, control 2.5% v/v DMSO): Significant reduction
Fat mobilization (C. elegans; DAF-16 mutant worms (mgDf47)): stimulates fat mobilization
Fat mobilization (C. elegans; RNA inactivation of TOC1.8 (AMPK) or F41E7.3 (COT)): blocks resveratrol-stimulated fat mobilization
Fat mobilization (C. elegans; Sir2.1 RNAi): did not show resveratrol induced fat mobilization
Reduction of fat content (C. elegans; normal worms, RNAi vector alone): 75%
Fat accumulation (in words) (C. elegans; wild-type N2, 10 μM or 50 μM): marked decrease
Reduction of fat accumulation (C. elegans; wild-type N2, 100 μM, overnight): 90%
Phosphorylation of ACC (phosphorylation of ACC): stimulated the phosphorylation of ACC
Insulin sensitivity (radioactive glucose uptake) [1]: partially rescued
